Assay results from ChEMBL document CHEMBL5634113, “Synthesis, cytotoxic activity evaluation and mechanistic investigation of novel 3,7-diarylsubstituted 6-azaindoles” (Eur J Med Chem, 2023).
Counter-ions that a name gives are not always drawn. Active and inactive are the calls of the source. The calls are words filed in the database; no cut-off is given here.

What was measured:
[1] = tested on: MCF7; assay: Cytotoxicity against human MCF7 cells assessed as inhibition of cell growth incubated for 72 hrs by MTT assay; type: functional, cell-based; details: MCF7, 72 h
[2] = tested on: A-431; assay: Cytotoxicity against human A-431 cells assessed as inhibition of cell growth incubated for 72 hrs by MTT assay; type: functional, cell-based; details: A-431, 72 h
[3] = tested on: MDA-MB-231; assay: Cytotoxicity against human MDA-MB-231 cells assessed as inhibition of cell growth incubated for 72 hrs by MTT assay; type: functional, cell-based; details: MDA-MB-231, 72 h
[4] = tested on: HT-1080; assay: Cytotoxicity against human HT-1080 cells assessed as inhibition of cell growth incubated for 72 hrs by MTT assay; type: functional, cell-based; details: HT-1080, 72 h
[5] = Cytotoxicity against human AG1523 cells assessed as inhibition of cell growth incubated for 72 hrs by MTT assay; type: toxicity, cell-based
[6] = tested on: A-431; assay: Induction of cell cycle arrest in human A-431 cells assessed as accumulation of cells at G2/M phase at 100 nM incubated for 24 hrs by RNase/PI staining based flow cytometry analysis (reference value: 15.66%); type: functional
[7] = tested on: A-431; assay: Induction of cell cycle arrest in human A-431 cells assessed as accumulation of cells at S phase at 100 nM incubated for 24 hrs by RNase/PI staining based flow cytometry analysis (reference value: 43.35%); type: functional
[8] = tested on: A-431; assay: Induction of cell cycle arrest in human A-431 cells assessed as accumulation of cells at Sub-diploid phase at 100 nM incubated for 24 hrs by RNase/PI staining based flow cytometry analysis (reference value: 1.82%); type: functional
[9] = tested on: A-431; assay: Induction of cell cycle arrest in human A-431 cells assessed as accumulation of cells at G0/G1 phase at 100 nM incubated for 24 hrs by RNase/PI staining based flow cytometry analysis (reference value: 40.98%); type: functional
[10] = target: Mitogen-activated protein kinase 1 (Homo sapiens) (UniProt P28482); assay: Inhibition of ERK2 phosphorylation at Thr185/Tyr187 residues in human A-431 cells at IC50 measured after 0 to 24 hrs by multiplex immunoassay; type: cell-based; details: time 0-24 hrs
[11] = target: Dual specificity mitogen-activated protein kinase kinase 1 (Homo sapiens) (UniProt Q02750); assay: Inhibition of MEK1 phosphorylation at Ser217/Ser221 residues in human A-431 cells at IC50 measured after 0 to 24 hrs by multiplex immunoassay; type: cell-based; details: time 0-24 hrs
[12] = tested on: A-431; assay: Genotoxicity in human A-431 cells assessed as upregulation of MDM2 total protein level at IC50 measured after 0 to 24 hrs by multiplex immunoassay; type: functional, cell-based; details: time 0-24 hrs
[13] = target: Signal transducer and activator of transcription 3 (Homo sapiens) (UniProt P40763); assay: Inhibition of STAT3 phosphorylation at Ser727 residue in human A-431 cells at IC50 measured after 0 to 24 hrs by multiplex immunoassay; type: cell-based; details: time 0-24 hrs
[14] = tested on: A-431; assay: Cytotoxicity against human A-431 cells assessed as increase in mitotic nuclei measured after 6 to 24 hrs by DAPI staining based analysis; type: functional, cell-based; details: time 6-24 hrs
[15] = target: Ribosomal protein S6 kinase alpha-1 (Homo sapiens) (UniProt Q15418); assay: Inhibition of p90 RSK phosphorylation at Ser380 residue in human A-431 cells at IC50 measured after 0 to 24 hrs by multiplex immunoassay; type: cell-based; details: time 0-24 hrs
[16] = tested on: A-431; assay: Genotoxicity in human A-431 cells assessed as upregulation of phosphorylated p53 at Ser15 residue protein level at IC50 measured after 0 to 24 hrs by multiplex immunoassay; type: functional, cell-based; details: time 0-24 hrs
[17] = target: Cyclin-dependent kinase inhibitor 1 (Homo sapiens) (UniProt P38936); assay: Activation of p21 waf1 in human A-431 cells assessed as increase in p21 waf1 protein level at IC50 measured after 0 to 24 hrs by Western blot analysis; type: cell-based; details: filed as activator, time 0-24 hrs
[18] = target: Mitogen-activated protein kinase 3 (Homo sapiens) (UniProt P27361); assay: Inhibition of ERK1 phosphorylation at Thr202/Tyr204 residues in human A-431 cells at IC50 measured after 0 to 24 hrs by multiplex immunoassay; type: cell-based; details: time 0-24 hrs
[19] = tested on: A-431; assay: Genotoxicity in human A-431 cells assessed as upregulation of phosphorylated Chk2 at Thr68 residue protein level at IC50 measured after 0 to 24 hrs by multiplex immunoassay; type: functional, cell-based; details: time 0-24 hrs
[20] = tested on: A-431; assay: Genotoxicity in human A-431 cells assessed as upregulation of ATR total protein level at IC50 measured after 0 to 24 hrs by multiplex immunoassay; type: functional, cell-based; details: time 0-24 hrs
[21] = tested on: A-431; assay: Genotoxicity in human A-431 cells assessed as upregulation of p21 total protein level at IC50 measured after 0 to 24 hrs by multiplex immunoassay; type: functional, cell-based; details: time 0-24 hrs
[22] = tested on: A-431; assay: Genotoxicity in human A-431 cells assessed as upregulation of phosphorylated Chk1 at Ser345 residue protein level at IC50 measured after 0 to 24 hrs by multiplex immunoassay; type: functional, cell-based; details: time 0-24 hrs
[23] = target: Cellular tumor antigen p53 (Homo sapiens) (UniProt P04637); assay: Activation of p53 in human A-431 cells assessed as increase in p53 phosphorylation at Ser15 residue at IC50 measured after 0 to 24 hrs by Western blot analysis; type: cell-based; details: filed as activator, time 0-24 hrs
Cellular tumor antigen p53 (Homo sapiens), sequence (P04637 whole entry, looked up): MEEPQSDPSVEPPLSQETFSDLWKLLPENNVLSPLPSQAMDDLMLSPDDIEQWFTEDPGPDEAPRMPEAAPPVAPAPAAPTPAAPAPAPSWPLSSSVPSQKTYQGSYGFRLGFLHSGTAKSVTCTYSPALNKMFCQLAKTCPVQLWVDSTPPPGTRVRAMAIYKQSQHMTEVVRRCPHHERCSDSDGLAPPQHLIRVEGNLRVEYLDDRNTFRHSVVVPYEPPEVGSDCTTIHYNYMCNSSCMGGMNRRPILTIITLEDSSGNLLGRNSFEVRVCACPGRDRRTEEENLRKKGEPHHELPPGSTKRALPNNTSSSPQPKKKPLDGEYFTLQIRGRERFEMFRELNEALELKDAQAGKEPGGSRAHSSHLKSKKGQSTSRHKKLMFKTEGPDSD

Ribosomal protein S6 kinase alpha-1 (Homo sapiens), sequence (Q15418 whole entry): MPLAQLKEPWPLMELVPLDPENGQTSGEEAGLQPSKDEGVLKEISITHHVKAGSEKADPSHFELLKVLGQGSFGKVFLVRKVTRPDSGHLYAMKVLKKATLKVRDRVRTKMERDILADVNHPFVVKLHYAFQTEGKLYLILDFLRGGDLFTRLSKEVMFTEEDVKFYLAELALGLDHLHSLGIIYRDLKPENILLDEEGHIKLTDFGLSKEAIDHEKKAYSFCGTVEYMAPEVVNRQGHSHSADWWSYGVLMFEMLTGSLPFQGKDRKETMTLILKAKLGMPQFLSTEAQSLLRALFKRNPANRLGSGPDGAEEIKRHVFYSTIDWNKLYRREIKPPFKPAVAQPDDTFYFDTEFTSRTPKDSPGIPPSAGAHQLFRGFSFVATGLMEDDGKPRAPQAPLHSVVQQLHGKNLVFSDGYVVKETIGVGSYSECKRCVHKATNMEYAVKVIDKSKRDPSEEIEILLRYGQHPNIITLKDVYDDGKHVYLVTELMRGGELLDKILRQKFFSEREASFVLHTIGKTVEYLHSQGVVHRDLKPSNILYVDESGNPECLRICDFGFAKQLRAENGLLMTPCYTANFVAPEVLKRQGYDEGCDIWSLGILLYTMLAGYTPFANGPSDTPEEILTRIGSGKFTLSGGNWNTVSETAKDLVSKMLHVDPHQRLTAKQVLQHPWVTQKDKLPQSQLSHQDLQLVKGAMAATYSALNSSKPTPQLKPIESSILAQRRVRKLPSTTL
Cyclin-dependent kinase inhibitor 1 (Homo sapiens), sequence (P38936 whole entry): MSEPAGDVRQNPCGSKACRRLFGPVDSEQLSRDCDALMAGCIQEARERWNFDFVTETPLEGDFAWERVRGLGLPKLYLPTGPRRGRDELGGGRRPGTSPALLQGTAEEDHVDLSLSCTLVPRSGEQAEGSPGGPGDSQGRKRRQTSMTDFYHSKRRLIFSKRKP
Mitogen-activated protein kinase 3 (Homo sapiens), sequence (P27361 whole entry): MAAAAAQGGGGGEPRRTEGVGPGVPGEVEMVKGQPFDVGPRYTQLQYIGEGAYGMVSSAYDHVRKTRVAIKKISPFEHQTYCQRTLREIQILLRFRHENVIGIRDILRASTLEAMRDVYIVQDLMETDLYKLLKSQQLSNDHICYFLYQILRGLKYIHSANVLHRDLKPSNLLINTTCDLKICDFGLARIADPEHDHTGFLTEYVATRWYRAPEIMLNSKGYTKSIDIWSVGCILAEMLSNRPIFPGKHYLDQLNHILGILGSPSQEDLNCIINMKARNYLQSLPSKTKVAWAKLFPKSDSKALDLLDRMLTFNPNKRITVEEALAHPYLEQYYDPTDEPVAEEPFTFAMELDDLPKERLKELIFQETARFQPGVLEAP
Dual specificity mitogen-activated protein kinase kinase 1 (Homo sapiens), sequence (Q02750 whole entry): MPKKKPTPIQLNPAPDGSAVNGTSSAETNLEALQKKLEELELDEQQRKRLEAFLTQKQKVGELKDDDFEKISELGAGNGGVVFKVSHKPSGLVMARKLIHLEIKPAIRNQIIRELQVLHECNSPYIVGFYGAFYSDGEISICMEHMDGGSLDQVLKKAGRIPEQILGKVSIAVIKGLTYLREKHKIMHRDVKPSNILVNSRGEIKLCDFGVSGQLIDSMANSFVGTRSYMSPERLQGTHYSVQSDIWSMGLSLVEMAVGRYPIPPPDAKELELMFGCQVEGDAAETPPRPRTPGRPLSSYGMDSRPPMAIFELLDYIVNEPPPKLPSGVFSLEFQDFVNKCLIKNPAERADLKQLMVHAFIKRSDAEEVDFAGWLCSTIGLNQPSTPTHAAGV
Mitogen-activated protein kinase 1 (Homo sapiens), sequence (P28482 whole entry): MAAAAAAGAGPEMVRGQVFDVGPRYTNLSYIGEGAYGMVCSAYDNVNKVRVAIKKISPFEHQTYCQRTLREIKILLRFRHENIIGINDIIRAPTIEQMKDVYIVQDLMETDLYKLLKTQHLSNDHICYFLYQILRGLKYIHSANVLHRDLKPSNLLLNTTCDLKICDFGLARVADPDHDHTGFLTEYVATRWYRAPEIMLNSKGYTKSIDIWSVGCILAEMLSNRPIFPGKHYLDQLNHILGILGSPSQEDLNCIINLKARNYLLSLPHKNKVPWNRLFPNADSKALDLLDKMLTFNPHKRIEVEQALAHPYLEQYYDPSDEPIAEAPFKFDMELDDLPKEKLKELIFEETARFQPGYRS
Signal transducer and activator of transcription 3 (Homo sapiens), sequence (P40763 whole entry): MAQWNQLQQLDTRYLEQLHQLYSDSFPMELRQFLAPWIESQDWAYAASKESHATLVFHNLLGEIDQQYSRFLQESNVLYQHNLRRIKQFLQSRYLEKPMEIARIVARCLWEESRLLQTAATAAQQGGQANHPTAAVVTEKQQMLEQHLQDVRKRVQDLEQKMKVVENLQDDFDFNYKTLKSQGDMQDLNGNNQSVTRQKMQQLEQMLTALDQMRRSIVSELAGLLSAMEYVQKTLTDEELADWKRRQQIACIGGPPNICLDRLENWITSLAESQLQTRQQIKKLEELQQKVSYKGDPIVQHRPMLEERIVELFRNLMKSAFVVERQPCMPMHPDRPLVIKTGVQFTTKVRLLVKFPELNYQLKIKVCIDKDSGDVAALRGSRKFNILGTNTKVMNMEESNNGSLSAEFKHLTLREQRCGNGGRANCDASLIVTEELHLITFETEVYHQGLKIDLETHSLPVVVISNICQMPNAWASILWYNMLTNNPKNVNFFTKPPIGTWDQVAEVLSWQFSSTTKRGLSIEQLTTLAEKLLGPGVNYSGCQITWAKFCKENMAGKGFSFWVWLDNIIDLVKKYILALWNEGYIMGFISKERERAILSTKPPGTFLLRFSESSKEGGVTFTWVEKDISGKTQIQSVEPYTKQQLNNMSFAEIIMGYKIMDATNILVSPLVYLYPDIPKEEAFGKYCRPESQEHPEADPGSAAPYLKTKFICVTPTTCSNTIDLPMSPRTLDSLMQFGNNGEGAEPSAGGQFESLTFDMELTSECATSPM

SMILES	IC50 [1] [µM]	IC50 [2] [nM]	IC50 [3] [µM]	IC50 [4] [µM]	IC50 at 72 h [5] [µM]	further results
COc1ccc(Cn2cc(-c3cccc(F)c3)c3ccnc(-c4ccccc4)c32)cc1	12.9	9000	49.8	14.1	> 100	–
COc1ccc(Cn2cc(-c3cccc(F)c3)c3ccnc(-c4ccc(C(C)=O)cc4)c32)cc1	9.7	13000	89.2	13.4	> 100	–
COc1ccc(Cn2cc(-c3ccccc3)c3ccnc(-c4cccc([N+](=O)[O-])c4)c32)cc1	> 100	> 100000	> 100	> 100	> 100	–
COc1ccc(Cn2cc(-c3cccc(F)c3)c3ccnc(-c4cccc([N+](=O)[O-])c4)c32)cc1	> 100	> 100000	> 100	> 100	> 100	–
Fc1cccc(-c2c[nH]c3c(-c4ccc(Cl)cc4)nccc23)c1	0.41	110	0.13	0.087	78.6	–
COc1ccc(-c2nccc3c(-c4ccccc4)c[nH]c23)c(OC)c1	0.1	12	0.017	0.012	79.8	Activity [6]: 63.32%; Activity [7]: 10.27%; Activity [8]: 40.02%; Activity [9]: 26.41%
Clc1ccc(-c2nccc3c(-c4ccccc4)c[nH]c23)cc1	0.35	20	0.051	0.056	> 100	Activity [6]: 39.73%; Activity [7]: 39.69%; Activity [8]: 33.54%; Activity [9]: 20.59%
c1ccc(-c2c[nH]c3c(-c4ccccc4)nccc23)cc1	2.48	540	1.51	0.79	85.1	–
COc1ccc(Cn2cc(-c3cccc(F)c3)c3ccnc(-c4ccc(OC)cc4OC)c32)cc1	11.4	5320	18.1	8.61	> 100	–
COc1ccc(Cn2cc(-c3cccc(F)c3)c3ccnc(-c4ccc(Cl)cc4)c32)cc1	73.3	14300	> 100	> 100	> 100	–
Fc1cccc(-c2c[nH]c3c(-c4ccccc4)nccc23)c1	2.29	1600	3.65	3.15	> 100	–
COc1ccc(Cn2cc(-c3ccccc3)c3ccnc(-c4ccccc4)c32)cc1	13.4	9890	22.5	13.1	> 100	–
O=[N+]([O-])c1cccc(-c2nccc3c(-c4ccccc4)c[nH]c23)c1	3.34	2600	4.39	3.06	> 100	–
COc1ccc(Cn2cc(-c3ccccc3)c3ccnc(-c4ccc(OC)cc4OC)c32)cc1	10.3	6200	15.8	7.67	> 100	–
COc1ccc(Cn2cc(-c3ccccc3)c3ccnc(-c4ccc(C(C)=O)cc4)c32)cc1	24.5	> 100000	> 100	41.6	> 100	–
O=[N+]([O-])c1cccc(-c2nccc3c(-c4cccc(F)c4)c[nH]c23)c1	4.39	2500	5.12	0.82	49	–
COc1ccc(Cn2cc(-c3ccccc3)c3ccnc(-c4ccc(Cl)cc4)c32)cc1	40.8	10800	> 100	25.8	> 100	–
COc1cccc2c1C(=O)c1c(O)c3c(c(O)c1C2=O)C[C@@](O)(C(=O)CO)C[C@@H]3O[C@H]1C[C@H](N)[C@H](O)[C@H](C)O1 [DOXORUBICIN HYDROCHLORIDE]	0.144	9	0.096	0.007	–	–
CC(=O)c1ccc(-c2nccc3c(-c4cccc(F)c4)c[nH]c23)cc1	0.81	420	0.42	0.47	> 100	–
COc1ccc(-c2nccc3c(-c4cccc(F)c4)c[nH]c23)c(OC)c1	0.14	13	0.018	0.014	56.3	inhibition [10]: Active; Activity [6]: 54.04%; Activity [7]: 12.97%; inhibition [11]: Active; Activity [12]: Active; Activity [8]: 29.86%; inhibition [13]: Active; Activity [14]: Active; Activity [9]: 33%; inhibition [15]: Active; Activity [16]: Active; Activity [17]: Active; inhibition [18]: Active; Activity [19]: Active; Activity [20]: Active; Activity [21]: Active; Activity [22]: Active; Activity [23]: Active
CC(=O)c1ccc(-c2nccc3c(-c4ccccc4)c[nH]c23)cc1	0.64	100	0.27	0.52	> 100	Activity [6]: 64.95%; Activity [7]: 20.32%; Activity [8]: 39.37%; Activity [9]: 14.74%
